Results reported in patent US20240209028A1, “CNP COMPOUNDS” (priority 2022, published 2024).
≈ marks a conversion by molar mass, not a printed value. Like-named read-outs stand apart in the source and are kept apart here. Starred links: 1 amine or outer side, 2 acyl side, 3 side chain; linkers in the order of their positions; H or OH if unused. Positions of bridges follow the written chain, without caps; N, C: chain ends. Residues, ends and D or L forms follow the SMILES beside them. *: point of attachment. C18 diacid = O=C(O)CCCCCCCCCCCCCCCCC(=O)*; γGlu = O=C(O)[C@H](CCC(=O)[*:2])N[*:1]; AEEA = NCCOCCOCC(=O)O

Experiments:
[1] = Solubility of CNP compounds at pH 4.0 and pH 6.5; format: physicochemical
How it was run: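 Supernatant peptide concentration was quantified by CAD after overnight room-temperature equilibration of incompletely dissolved samples. Nominal loading was ≥4000-5000 nmol/mL. Media were pH 4.0 sodium acetate 5 mM/glycerol 250 mM, or pH 6.5 sodium phosphate 8 mM/glycerol 23 mg/mL reached by stepwise NaOH addition.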

[2] = High-Molecular-Weight-Protein (HMWP) formation by SEC-UPLC; format: physicochemical; details: increase over two weeks at 37° C.
Protocol: In order to assess the propensity of CNP compounds to form covalent dimers or oligomers when formulated the High-Molecular-Weight-Protein content of CNP compound formulations at pH 4.0 and 6.5 were determined.
Procedure: The relative amount of covalent HMWP was assessed using SEC-UPLC. SEC-UPLC was conducted using a Waters UPLC Protein BEH SEC column, 125A, 4.6×150 mm, 1.7 μm, with isocratic elution (0.3 M NaCl, 10 mM NaH2PO4 and 5 mM H3PO4, 50% (v/v) isopropanol, pH 2.4) with a flow rate of 0.3 mL/min, a column temperature at 50° C. with UV-detection at 215 nm. The total area of peaks eluting prior to the monomeric main peak was termed HMWP and given on a percentage scale relative to the total peptide peak area.
(§1) Results: HMWP Formation Following 2-Weeks Quiescent Incubation at 37° C.: Samples at pH 4.0 were prepared as described in Example 5 and the amount of HMWP was determined as described above. Samples were incubated for two weeks at 37° C. and the amount of HMWP was determined again. The increase in HMWP over two weeks incubation at 37° C. are reported in Table 10 (in case the incubation period deviated from two weeks the increase in HMWP was normalized to two weeks assuming a constant formation rate).
as §1, with “Samples” for “Results: HMWP Formation Following 2-Weeks Quiescent Incubation at 37° C.: Samples”, “6.5” for “4.0”, “11” for “10”

[3] = 8 mM sodium phosphate, 23 mg/mL glycerol, pH 6.5, room temperature, read-out: Solubility at pH 6.5

SMILES	solubility [1, 3]	2-Week HMWP formation at pH 6.5 (%), % relative to total peak area [2]	solubility ([1]; 5 mM sodium acetate, 250 mM glycerol, pH 4.0, room temperature, read-out: Solubility at pH 4.0)	2-Week HMWP formation at pH 4.0 (%), % relative to total peak area ([2]; pH 4.0)
CC[C@H](C)[C@@H]1NC(=O)[C@H](CCCNC(=N)N)NC(=O)[C@H](CC(=O)O)NC(=O)[C@H](CC(C)C)NC(=O)[C@@H]2CCCN2C(=O)[C@H](CC(C)C)NC(=O)CNC(=O)[C@H](Cc2ccccc2)NC(=O)[C@@H](NC(=O)CNC(=O)[C@H](CCC(N)=O)NC(=O)[C@H](CO)NC(=O)[C@H](CC(C)C)NC(=O)CNC(=O)[C@H](CCCCN)NC(=O)[C@H](CCCCN)NC(=O)[C@H](CCC(N)=O)NC(=O)[C@H](C)NC(=O)CNC(=O)[C@H](CCCCN)NC(=O)[C@H](Cc2ccc(O)cc2)NC(=O)[C@H](CCCCN)NC(=O)[C@H](CCCNC(=N)N)NC(=O)[C@H](C)NC(=O)[C@H](CCC(N)=O)NC(=O)[C@@H]2CCCN2C(=O)[C@H](Cc2c[nH]cn2)NC(=O)[C@H](CCC(=O)O)NC(=O)[C@H](CCC(N)=O)NC(=O)COCCOCCNC(=O)COCCOCCNC(=O)CC[C@H](NC(=O)CC[C@H](NC(=O)CC[C@H](NC(=O)CC[C@H](NC(=O)CC[C@H](NC(=O)CC[C@H](NC(=O)CCCCCCCCCCCCCCCCC(=O)O)C(=O)O)C(=O)O)C(=O)O)C(=O)O)C(=O)O)C(=O)O)CSSC[C@@H](C(=O)O)NC(=O)CNC(=O)[C@H](CC(C)C)NC(=O)CNC(=O)[C@H](CO)NC(=O)[C@H](CC(C)C)NC(=O)[C@H](CO)NC(=O)CNC1=O [compound 1402] ({C18 diacid-γGlu-γGlu-γGlu-γGlu-γGlu-γGlu-AEEA-AEEA}-QEHPQARKYKGAQKKGLSQGCFGLPLDRIGSLSGLGC-OH; disulfide 21-37)	10 mM (≈ 53 mg/mL)	2.19%		
CC[C@H](C)[C@@H]1NC(=O)[C@H](CCCNC(=N)N)NC(=O)[C@H](CC(=O)O)NC(=O)[C@H](CC(C)C)NC(=O)[C@@H]2CCCN2C(=O)[C@H](CC(C)C)NC(=O)CNC(=O)[C@H](Cc2ccccc2)NC(=O)[C@@H](NC(=O)CNC(=O)[C@H](CCC(N)=O)NC(=O)[C@H](CO)NC(=O)[C@H](CC(C)C)NC(=O)CNC(=O)[C@H](CCCCN)NC(=O)[C@H](CCCCN)NC(=O)[C@H](CCC(N)=O)NC(=O)[C@H](C)NC(=O)CNC(=O)[C@H](CCCCN)NC(=O)[C@H](Cc2ccc(O)cc2)NC(=O)[C@H](CCCCN)NC(=O)[C@H](CCCNC(=N)N)NC(=O)[C@H](C)NC(=O)[C@H](CCC(N)=O)NC(=O)[C@@H]2CCCN2C(=O)[C@H](Cc2c[nH]cn2)NC(=O)[C@H](CCC(=O)O)NC(=O)[C@H](CCC(N)=O)NC(=O)COCCOCCNC(=O)COCCOCCNC(=O)COCCOCCNC(=O)COCCOCCNC(=O)CC[C@H](NC(=O)CC[C@H](NC(=O)CC[C@H](NC(=O)CC[C@H](NC(=O)CC[C@H](NC(=O)CC[C@H](NC(=O)CCCCCCCCCCCCCCCCC(=O)O)C(=O)O)C(=O)O)C(=O)O)C(=O)O)C(=O)O)C(=O)O)CSSC[C@@H](C(=O)O)NC(=O)CNC(=O)[C@H](CC(C)C)NC(=O)CNC(=O)[C@H](CO)NC(=O)[C@H](CC(C)C)NC(=O)[C@H](CO)NC(=O)CNC1=O [compound 1404] ({C18 diacid-γGlu-γGlu-γGlu-γGlu-γGlu-γGlu-AEEA-AEEA-AEEA-AEEA}-QEHPQARKYKGAQKKGLSQGCFGLPLDRIGSLSGLGC-OH; disulfide 21-37)	6.88 mM (≈ 38.4 mg/mL)	1.8%		
CC[C@H](C)[C@@H]1NC(=O)[C@H](CCCNC(=N)N)NC(=O)[C@H](CC(=O)O)NC(=O)[C@H](CC(C)C)NC(=O)[C@@H]2CCCN2C(=O)[C@H](CC(C)C)NC(=O)CNC(=O)[C@H](Cc2ccccc2)NC(=O)[C@@H](NC(=O)CNC(=O)[C@H](CCC(N)=O)NC(=O)[C@H](CO)NC(=O)[C@H](CC(C)C)NC(=O)CNC(=O)[C@H](CCCCN)NC(=O)[C@H](CCCCN)NC(=O)[C@H](CCC(N)=O)NC(=O)[C@H](C)NC(=O)CNC(=O)[C@H](CCCCN)NC(=O)[C@H](Cc2ccc(O)cc2)NC(=O)[C@H](CCCCN)NC(=O)[C@H](CCCNC(=N)N)NC(=O)[C@H](C)NC(=O)[C@H](CCC(N)=O)NC(=O)[C@@H]2CCCN2C(=O)[C@H](Cc2c[nH]cn2)NC(=O)[C@H](CCC(=O)O)NC(=O)[C@H](CCC(N)=O)NC(=O)COCCOCCNC(=O)COCCOCCNC(=O)COCCOCCNC(=O)COCCOCCNC(=O)CC[C@H](NC(=O)CC[C@H](NC(=O)CC[C@H](NC(=O)CC[C@H](NC(=O)CC[C@H](NC(=O)CCCCCCCCCCCCCCCCC(=O)O)C(=O)O)C(=O)O)C(=O)O)C(=O)O)C(=O)O)CSSC[C@@H](C(=O)O)NC(=O)CNC(=O)[C@H](CC(C)C)NC(=O)CNC(=O)[C@H](CO)NC(=O)[C@H](CC(C)C)NC(=O)[C@H](CO)NC(=O)CNC1=O [compound 1406] ({C18 diacid-γGlu-γGlu-γGlu-γGlu-γGlu-AEEA-AEEA-AEEA-AEEA}-QEHPQARKYKGAQKKGLSQGCFGLPLDRIGSLSGLGC-OH; disulfide 21-37)	5.67 mM (≈ 30.9 mg/mL)	2.77%		
CC[C@H](C)[C@@H]1NC(=O)[C@H](CCCNC(=N)N)NC(=O)[C@H](CC(=O)O)NC(=O)[C@H](CC(C)C)NC(=O)[C@@H]2CCCN2C(=O)[C@H](CC(C)C)NC(=O)CNC(=O)[C@H](Cc2ccccc2)NC(=O)[C@@H](NC(=O)CNC(=O)[C@H](CO)NC(=O)[C@H](CO)NC(=O)[C@@H](NC(=O)CNC(=O)[C@H](CCCCN)NC(=O)[C@H](CCCCN)NC(=O)[C@H](CCC(N)=O)NC(=O)[C@H](C)NC(=O)CNC(=O)[C@H](Cc2c[nH]cn2)NC(=O)[C@H](Cc2ccc(O)cc2)NC(=O)[C@H](CCCCN)NC(=O)[C@H](CCCNC(=N)N)NC(=O)[C@H](C)NC(=O)COCCOCCNC(=O)COCCOCCNC(=O)CC[C@H](NC(=O)CC[C@H](NC(=O)CC[C@H](NC(=O)CCCCCCCCCCCCCCCCC(=O)O)C(=O)O)C(=O)O)C(=O)O)C(C)C)CSSC[C@@H](C(=O)O)NC(=O)CNC(=O)[C@H](CC(C)C)NC(=O)CNC(=O)[C@H](CO)NC(=O)[C@H](CC(C)C)NC(=O)[C@H](CO)NC(=O)CNC1=O [compound 1422] ({C18 diacid-γGlu-γGlu-γGlu-AEEA-AEEA}-ARKYHGAQKKGVSSGCFGLPLDRIGSLSGLGC-OH; disulfide 16-32)			8.29 mM (≈ 35.1 mg/mL)	36%
CC[C@H](C)[C@@H]1NC(=O)[C@H](CCCNC(=N)N)NC(=O)[C@H](CC(=O)O)NC(=O)[C@H](CC(C)C)NC(=O)[C@@H]2CCCN2C(=O)[C@H](CC(C)C)NC(=O)CNC(=O)[C@H](Cc2ccccc2)NC(=O)[C@@H](NC(=O)CNC(=O)[C@H](CCC(N)=O)NC(=O)[C@H](CO)NC(=O)CNC(=O)CNC(=O)[C@H](CCCCN)NC(=O)[C@H](Cc2c[nH]cn2)NC(=O)[C@H](CCC(N)=O)NC(=O)[C@H](C)NC(=O)CNC(=O)[C@H](CCC(=O)O)NC(=O)[C@H](Cc2ccc(O)cc2)NC(=O)[C@H](CCCCN)NC(=O)[C@H](CCCNC(=N)N)NC(=O)[C@H](C)NC(=O)COCCOCCNC(=O)COCCOCCNC(=O)COCCOCCNC(=O)COCCOCCNC(=O)CC[C@H](NC(=O)CC[C@H](NC(=O)CCCCCCCCCCCCCCCCC(=O)O)C(=O)O)C(=O)O)CSSC[C@@H](C(=O)O)NC(=O)CNC(=O)[C@H](CC(C)C)NC(=O)CNC(=O)[C@H](CO)NC(=O)[C@H](CC(C)C)NC(=O)[C@H](CO)NC(=O)CNC1=O [compound 1432] ({C18 diacid-γGlu-γGlu-AEEA-AEEA-AEEA-AEEA}-ARKYEGAQHKGGSQGCFGLPLDRIGSLSGLGC-OH; disulfide 16-32)	9.83 mM (≈ 43.2 mg/mL)	2.89%		
CC[C@H](C)[C@@H]1NC(=O)[C@H](CCCNC(=N)N)NC(=O)[C@H](CC(=O)O)NC(=O)[C@H](CC(C)C)NC(=O)[C@@H]2CCCN2C(=O)[C@H](CC(C)C)NC(=O)CNC(=O)[C@H](Cc2ccccc2)NC(=O)[C@@H](NC(=O)CNC(=O)[C@H](CCC(N)=O)NC(=O)[C@H](CO)NC(=O)CNC(=O)CNC(=O)[C@H](CCCCN)NC(=O)[C@H](CCCCN)NC(=O)[C@H](CCC(N)=O)NC(=O)[C@H](C)NC(=O)CNC(=O)[C@H](Cc2c[nH]cn2)NC(=O)[C@H](Cc2ccc(O)cc2)NC(=O)COCCOCCNC(=O)COCCOCCNC(=O)COCCOCCNC(=O)COCCOCCNC(=O)CC[C@H](NC(=O)CC[C@H](NC(=O)CCCCCCCCCCCCCCCCC(=O)O)C(=O)O)C(=O)O)CSSC[C@@H](C(=O)O)NC(=O)CNC(=O)[C@H](CC(C)C)NC(=O)CNC(=O)[C@H](CO)NC(=O)[C@H](CC(C)C)NC(=O)[C@H](CO)NC(=O)CNC1=O [compound 1434] ({C18 diacid-γGlu-γGlu-AEEA-AEEA-AEEA-AEEA}-YHGAQKKGGSQGCFGLPLDRIGSLSGLGC-OH; disulfide 13-29)	8.51 mM (≈ 34.4 mg/mL)	3.2%		
